In brackets after ≈: the same amount, converted by molar mass.
Conditions: buffer; pH 7.4; 200.0 µM

| SMILES | solubility kinetic |
| --- | --- |
| COc1cc(S(=O)(=O)N2CCN(Cc3ccc4c(c3)OCO4)CC2)ccc1NC(C)=O.Cl | 10.5 µg/mL |
| CCN1CCN(C(=O)Cc2ccc(C)cc2)CC1 | > 37 µg/mL |
| CC(=O)Nc1cc2nc(C)n(Cc3ccc([N+](=O)[O-])cc3)c2nc1C | > 50.9 µg/mL |
| Cc1ccc(C(C)C)c(OCC(=O)OCC(=O)NC2CC2)c1 | > 45.8 µg/mL |
| Cc1ccc(NC(=O)C2CCCN2C(=O)OC(C)(C)C)cc1C (centres undefined) | > 47.8 µg/mL |
| CC(C)(C)NS(=O)(=O)c1ccc(NC(=S)NC(=O)C2CCC2)cc1 | 1.1 µg/mL (≈ 2.98 µM) |
| O=c1[nH]cccc1-c1nc2ccccc2n1Cc1ccc(Cl)cc1 | > 50.4 µg/mL |
| Clc1cccc(Cl)c1C1Nc2cccc3cccc(c23)N1 | 3 µg/mL (≈ 9.52 µM) |
| CCCSc1nc2sc3c(c2c(=O)[nH]1)CC(C)(CC)OC3 (centres undefined) | 1.5 µg/mL (≈ 4.62 µM) |
| OCCC1CCCCN1CC(O)COCc1ccc(Cl)cc1 (centres undefined) | 45.1 µg/mL (≈ 138 µM) |
| NC(=O)COC(=O)c1ccc2c(c1)S(=O)(=O)c1ccccc1C2=O | 7.5 µg/mL (≈ 21.7 µM) |
| Cc1ccc(S(=O)(=O)NC(=O)Nc2cc(C(C)(C)C)on2)cc1 | > 50.6 µg/mL |
| COc1ccc(C2C(C#N)=C(N)Oc3c2oc(CO)cc3=O)cc1 (centres undefined) | > 48.9 µg/mL |
| O=C(NCc1ccc2c(c1)CCO2)Nc1cccc(C(F)(F)F)c1 | 1 µg/mL (≈ 2.97 µM) |
| O=C(Nc1ccc2c(c1)CCC2)c1ncoc1-c1ccccc1F | < 0.3 µg/mL |
| O=C(NCc1cccnc1)Nc1cccc(NC(=O)NCc2cccnc2)c1F | 7.6 µg/mL (≈ 19.3 µM) |
| O=C(Cc1ccccc1)Nc1ccccc1C(=O)N1CCCCC1 | > 48.4 µg/mL |
| COc1cccc(C(=O)OCC(=O)NCc2ccc3c(c2)OCO3)c1OC | > 56 µg/mL |
| COc1ccc(N=C2NC(=O)/C(=C/C=C/c3ccccc3)S2)cc1 | < 0.4 µg/mL |
| CCNC(=S)Nc1ccc(Cc2ccncc2)cc1 | 38.3 µg/mL (≈ 141 µM) |
| CC(=O)c1c(C)[nH]c(C(=O)Nc2ccc(F)cc2F)c1C | 20.6 µg/mL (≈ 70.5 µM) |

| SMILES | solubility kinetic |
| --- | --- |
| N#C/C(=C\c1ccccc1C(=O)O)c1nc2ccccc2[nH]1 | > 43.4 µg/mL |
| Cc1ccc(C(=O)NCc2ccco2)c(C)c1 | 33.6 µg/mL (≈ 147 µM) |
| Cc1nc2sc(C(N)=O)c(N)c2c2c1CCCC2 | 9.3 µg/mL (≈ 35.6 µM) |
| Cc1cc(NC(=O)C(=O)NCc2cccc(Cl)c2)no1 | 3.2 µg/mL (≈ 10.9 µM) |
| N#Cc1cccc(NC(=O)COC(=O)c2cc(S(=O)(=O)Nc3ccccc3Cl)ccc2O)c1 | 40.4 µg/mL (≈ 83.1 µM) |
| COc1ccc(CC(=O)NCCN2CCOCC2)cc1 | > 41.8 µg/mL |
| CCOc1nc(NCCO)nc(Nc2ccccc2F)n1 | > 44 µg/mL |
| CC(=NCc1ccco1)c1c(O)n(-c2ccc(C)cc2)c(=O)[nH]c1=O | 12.5 µg/mL (≈ 36.8 µM) |
| CN(C)c1cccc(C(=O)OCC(=O)N(C)c2ccccc2)c1 | > 46.9 µg/mL |
| CCOc1ccc2[nH]c3c(NCC(C)C)ncnc3c2c1 | 5.1 µg/mL (≈ 17.9 µM) |
| FC(F)Oc1ccccc1NC(=S)Nc1cccnc1 | 43.8 µg/mL (≈ 148 µM) |
| COc1ccccc1/C=C/C(=O)N1CCc2cc(OC)c(OC)cc2C1C (centres undefined) | 33 µg/mL (≈ 89.8 µM) |
| Cc1ccc(S(=O)(=O)NC(C)C(=O)NC(C)c2cccs2)cc1 (centres undefined) | 51.6 µg/mL (≈ 146 µM) |
| COc1cc(C(=S)N2CCCC2)cc(OC)c1OC | > 42.2 µg/mL |
| COC(=O)c1c(C)oc(C)c1S(=O)(=O)N(C)C1CCCCC1 | 38.9 µg/mL (≈ 118 µM) |
| O=C(NCCC1=CCCCC1)C1CCN(C(=O)Cc2ccccc2)CC1 | > 53.2 µg/mL |
| Nc1ccccc1SCc1ccccc1 | 4 µg/mL (≈ 18.6 µM) |
| CCOC(=O)CSc1nnc(-c2cccnc2)n1C | > 41.7 µg/mL |
| O=C(Nc1ccc([N+](=O)[O-])cc1)c1cc(Cl)sc1Cl | < 0.3 µg/mL |
| CC1CN(C(=O)/C(=C/c2ccco2)NC(=O)c2ccccc2)CC(C)O1 (centres undefined) | > 53.2 µg/mL |
| CCOc1ccc(-c2nc(N)ncc2Oc2ccc(OC)cc2)c(O)c1 | 1 µg/mL (≈ 2.83 µM) |

| SMILES | solubility kinetic |
| --- | --- |
| C#CCNC(=O)c1ccc(OCc2ccccc2)cc1Cl | 41.7 µg/mL (≈ 139 µM) |
| CCc1cc(=O)oc2cc(OCC(=O)N3CC[C@@]4(O)CCCC[C@H]4C3)ccc12 | > 57.8 µg/mL |
| COc1ccc(S(N)(=O)=O)cc1C(=O)OCC(=O)Nc1sccc1C#N | 15.1 µg/mL (≈ 38.2 µM) |
| CN(C)C(=O)Oc1noc2cc(Cl)ccc12 | 27.9 µg/mL (≈ 116 µM) |
| CC1CCC(NC(=O)CCNS(=O)(=O)c2ccccc2)CC1 (centres undefined) | > 48.7 µg/mL |
| O=C(O)c1cccc(NC2=Nc3cccc4cccc2c34)c1 | 36.7 µg/mL (≈ 127 µM) |
| CCc1cccc(CC)c1N(COC)C(=O)Cn1cnc2ccccc21 | > 52.7 µg/mL |
| O=CNCc1nc2ccccc2n1CCCc1ccccc1 | > 44 µg/mL |
| CC(=O)c1cccc(NC(=O)C2=CN3CCS(=O)(=O)N=C3C=C2)c1 | 48.1 µg/mL (≈ 139 µM) |
| CC(=O)C1C(c2ccccc2)c2c(noc2C)CC1(C)O (centres undefined) | > 42.8 µg/mL |
| COc1ccc(OCC(=O)NCCCCCCNC(=O)COc2ccc(OC)cc2)cc1 | 2.6 µg/mL (≈ 5.85 µM) |
| CCc1cccc(NC(=O)CCCN2C(=O)NC(C)(C)C2=O)c1 | > 47.6 µg/mL |
| Cc1cc(C(=O)OCC(=O)N2CCCCCC2)ccc1[N+](=O)[O-] | > 48.1 µg/mL |
| O=C(COC(=O)c1cccnc1Cl)NCCc1ccccc1 | > 47.8 µg/mL |
| CCOC(=O)Cc1c(C)nc(N)[nH]c1=O | 31.1 µg/mL (≈ 147 µM) |
| Cc1ccc(C)c(NC2=C(Cl)C(=O)OC2OC(C)C)c1 (centres undefined) | 10.8 µg/mL (≈ 36.5 µM) |
| CC(=O)c1c(C)n(-c2cccc(Cl)c2)c2ccc(O)cc12 | < 0.6 µg/mL |
| C=CCSc1ncnc2c1oc1nc3c(cc12)COC(C)(C)C3 | 1.3 µg/mL (≈ 3.97 µM) |
| CCCC(=O)NCc1nc2ccccc2n1CC(=O)c1ccccc1 | > 50.3 µg/mL |
| N/C(CCS(=O)(=O)c1ccc(Cl)cc1)=N\OC(=O)c1ccc(Cl)cc1 | 1.2 µg/mL (≈ 2.99 µM) |
| Cc1cccc(C)c1OCC(=O)Nc1c(C)nn(C)c1C | > 43.1 µg/mL |

| SMILES | solubility kinetic |
| --- | --- |
| O=C1CSC(c2cccc([N+](=O)[O-])c2)N1c1ccccc1 (centres undefined) | 41.4 µg/mL (≈ 138 µM) |
| O=C1CSC(c2cccnc2)N1c1cccc(Cl)c1 (centres undefined) | 43.3 µg/mL (≈ 149 µM) |
| Cc1ccc(NC(=O)COCC(=O)Nc2ccc(C)cc2)cc1 | 3.1 µg/mL (≈ 9.92 µM) |
| CCN(CC)c1ccc(N=CN2CCOCC2)cc1 | 35.9 µg/mL (≈ 137 µM) |
| CN(Cc1ccccc1)S(=O)(=O)c1ccc(Cl)c(C(=O)N2CCC(C(N)=O)CC2)c1 | > 67.5 µg/mL |
| CCOC(=O)c1ccc(S(=O)(=O)NC2CC2)cc1 | 32.4 µg/mL (≈ 120 µM) |
| O=S(=O)(c1ccccc1)c1nc(NC2CC2)sc1Cl | 42.8 µg/mL (≈ 136 µM) |
| Cl.O=C(Nc1cccc(F)c1)[C@@H]1CCCN1 | > 36.7 µg/mL |
| CC1=C(C#N)C(c2ccc(O)cc2)C(C#N)=C(C)N1 | > 37.7 µg/mL |
| Cc1ccc(NC(=O)CNC(=O)c2ccco2)cc1 | > 38.7 µg/mL |
| COCCNC(=O)c1cc2cc(Cl)cc(Cl)c2oc1=O | 9.2 µg/mL (≈ 29.1 µM) |
| O=C(Nc1ccsc1C(=O)O)c1cccc(Oc2ccccc2)c1 | 43.2 µg/mL (≈ 127 µM) |
| COc1ccc(C(=O)OCC(=O)NC2CCCC2)c(OC)c1OC | > 50.6 µg/mL |
| O=C(CNC(=O)c1ccc(Br)o1)NC12CC3CC(CC(C3)C1)C2 | 50.5 µg/mL (≈ 132 µM) |
| O=[N+]([O-])c1ccc(O)c([N+](=O)[O-])c1 | > 27.6 µg/mL |
| CN(C)NC(=O)c1ccc([N+](=O)[O-])s1 | > 32.3 µg/mL |
| CCOC(=O)c1cc(-c2csc(Nc3c(C)cc(C)cc3C)n2)on1 | 0.4 µg/mL (≈ 1.12 µM) |
| Cn1c(=O)c2c(nc3n2CC(O)CN3c2ccccc2)n(C)c1=O (centres undefined) | > 49.1 µg/mL |
| COc1cccc(NC(=O)COC(=O)CC2CC3CCC2C3)c1 (centres undefined) | 24.1 µg/mL (≈ 75.9 µM) |
| O=S(=O)(NC1=NCCCCC1)c1ccc(F)cc1 | > 40.5 µg/mL |
| O=C(CCc1ccccc1)NCCc1nc2ccccc2[nH]1 | > 44 µg/mL |

Reference: PubChem BioAssay AID1996
